These results are taken from US7855290B2, “Pyridine derivatives and pyrimidine derivatives (3)” (Eisai R&D Management Co., Ltd., priority 2005, dated 2010).

For assay [1], the system named is Human umbilical vein endothelial cells (HUVECs). As to the kind of experiment: Inhibitory activity against the growth of vascular endothelial cells stimulated with hepatocyte growth factor. The assay is classed as cell-based. Conditions: HUVEC, HGF stimulated, third day, Cell Counting Kit-8, read-out: IC50 (cell proliferation activity). As to the method:
Human umbilical vein endothelial cells (HUVECs) were isolated according to the reported method (Shin Seikagaku Jikken Koza, “Cell culturing techniques”, p 197-202), and then cultured in a 5% CO2 incubator (37° C.) using EGM-2 medium (purchased from Clonetics) until the cells reached confluency.
HUVECs were suspended in a serum-free medium for endothelial cell culture (SFM, purchased from GIBCO RBL) containing 2% FBS. The cell suspension (2×10^4 cells/ml) was put in a cell culturing 96-well plate (purchased from NUNC, Production No. 167008) at 0.1 ml/well, and then cultured in a 5% CO2 incubator (37° C.) overnight. After the culture, each well was supplied with 50 μl of the test substance diluted with a 2% FBS-containing serum-free medium for endothelial cell culture and 50 μl of HGF (purchased from R&D) diluted at a concentration of 120 ng/ml with a 2% FBS-containing serum-free medium for endothelial cell culture, followed by culturing in a 5% CO2 incubator (37° C.). On the third day after the addition of the test substance, each well was supplied with 10 μl of Cell Counting Kit-8 (purchased from DOJINDO, Production No. 343-07623), and then the plate was incubated in a 5% CO2 incubator (37° C.) for about 2 hours. After the incubation, using a Plate Reader MTP-500 (Corona Electric), the absorbance of each well was determined at a measurement wavelength of 450 nm and a reference wavelength of 660 nm. While defining the absorbance of a well supplied with HGF and no test substance as 100% cell proliferation activity and the absorbance of the well supplied with no test substance and no HGF as 0% cell proliferation activity, the cell proliferation activity ratio (%) was calculated for each cell.
A general note: Tetrazolium dyes change colour on reduction, which living cells bring about.

In assay [2] the test system is Human gastric cancer cells (MKN-45). Description: Inhibitory activity against the tumor growth of human gastric cancer cells (MKN-45) transplanted in nude mice. Conditions: orally twice every day, tumor volume at fifth day, relative to control group. It is filed as in vivo, BALB/c (nu/nu) mice. As to the method:
Human gastric cancer cells (MNK-45) were suspended in HBSS (purchased from GIBCO BRL). The cell suspension (5×10^7 cells/ml) was transplanted under the right flank skin of seven-week-old female BALB/c (nu/nu) mice at a volume of 0.1 ml. When tumor volume of the site transplanted with MNK-45 cells grew to 100-200 mm^3, mice were grouped so that the groups might be equalized in average tumor volume. The test substance was suspended in 0.5% methylcellulose, a mixed solution of hydrochloric acid and glucose (0.1N hydrochloric acid:5% glucose=1:9) or a mixed solution of dimethyl sulfoxide-Tween-glucose (dimethyl sulfoxide:Tween 80:5% glucose (containing equimolar hydrochloric acid to the test substance)=7:13:80), were administered orally to the mice twice every day. The tumor volumes were determined at the fifth day after the initiation of the administration of the test substances. The major axis and the minor axis of tumor were measured by a caliper to calculate ½×(major axis×minor axis×minor axis) for the tumor volume. The experiment was conducted using 10 mice in the control group (solvent-administered group) and 5 mice in test substance-administered group. The ratio in tumor volume of the group for administrating the test substance relative to that of the control group was defined as a tumor proliferation rate (%).

For `O=C(Nc1cc(Oc2ccc(NC(=O)C3(C(=O)Nc4ccc(F)cc4)CC3)cc2F)ccn1)N1CCC(N2CCC2)CC1` [Example 11, N-{4-[(2-{[(4-Azetidin-1-ylpiperidin-1-yl)carbonyl]amino}pyridin-4-yl)oxy]-3-fluorophenyl}-N′-(4-fluorophenyl)cyclopropane-1,1-dicarboxamide], the IC50 in assay [1] is 33 nM.

Consider `CN1CCC(N(C)C(=O)Nc2cc(Oc3ccc(NC(=O)C4(C(=O)Nc5ccc(F)cc5)CC4)cc3F)ccn2)CC1` [Example 1, N-(3-Fluoro-4-{[2-({[methyl(1-methylpiperidin-4-yl)amino]carbonyl}amino)pyridin-4-yl]oxy}phenyl)-N′-(4-fluorophenyl)cyclopropane-1.1-dicarboxamide], for which the IC50 in assay [1] amounted to 4.6 nM.

Take `CN1CCC(N(C)C(=O)Nc2cc(Oc3ccc(NC(=O)C4(C(=O)Nc5ccc(F)cc5)CC4)c(F)c3)ccn2)CC1` [Example 3, N-(2-Fluoro-4-{[2-({[methyl(1-methylpiperidin-4-yl)amino]carbonyl}amino)pyridin-4-yl]oxy}phenyl)-N′-(4-fluorophenyl)cyclopropane-1,1-dicarboxamide]: the IC50 in assay [1] amounted to 13 nM.

As to `CN(C)C1CN(C2CCN(C(=O)Nc3cc(Oc4ccc(NC(=O)C5(C(=O)Nc6ccc(F)cc6)CC5)cc4F)ccn3)CC2)C1` [Example 21, N-[4-({2-[({4-[3-(Dimethylamino)azetidin-1-yl]piperidin-1-yl}carbonyl)amino]pyridin-4-yl}oxy)-3-fluorophenyl]-N′-(4-fluorophenyl)cyclopropane-1,1-dicarboxamide], in assay [1], the IC50 turned out to be 24 nM.

Turning to `CN(C)C1CN(C2CCN(C(=O)Nc3cc(Oc4ccc(NC(=O)C5(C(=O)Nc6ccc(F)cc6)CC5)c(F)c4)ccn3)CC2)C1` [Example 14, N-[4-({2-[({4-[3-(Dimethylamino)azetidin-1-yl]piperidin-1-yl}carbonyl)amino]pyridin-4-yl}oxy)-2-fluorophenyl]-N′-(4-fluorophenyl)cyclopropane-1,1-dicarboxamide], the IC50 in assay [1] worked out at 23 nM.

As for `CN(C)CC1CCN(C(=O)Nc2cc(Oc3ccc(NC(=O)C4(C(=O)Nc5ccc(F)cc5)CC4)c(F)c3)ccn2)CC1` [Example 8, N-[4-({2-[({4-[(Dimethylamino)methyl]piperidin-1-yl}carbonyl)amino]pyridin-4-yl}oxy)-2-fluorophenyl]-N′-(4-fluorophenyl)cyclopropane-1,1-dicarboxamide], the “Tumor proliferation rate (%)” value in assay [2] (Dose 30 mg/kg/time) was 53%; in assay [2] (Dose 100 mg/kg/time), 23.3%.

For the compound `CN1CCC(N(C)C(=O)Nc2cc(Oc3ccc(NC(=O)C4(C(=O)Nc5ccc(F)cc5)CC4)cc3)ccn2)CC1` [Example 12], in assay [1], the IC50 amounted to 23 nM. In addition, the “Tumor proliferation rate (%)” value was found to be 73.9% in assay [2] (Dose 30 mg/kg/time) and 27.6% in assay [2] (Dose 100 mg/kg/time).

`CN(C)CCN1CCN(C(=O)Nc2cc(Oc3ccc(NC(=O)C4(C(=O)Nc5ccc(F)cc5)CC4)cc3F)ccn2)CC1` [Example 7, N-[4-({2-[({4-[2-(Dimethylamino)ethyl]piperazin-1-yl}carbonyl)amino]pyridin-4-yl}oxy)-3-fluorophenyl]-N′-(4-fluorophenyl)cyclopropane-1,1-dicarboxamide]: the IC50 in assay [1] is 18 nM.

Regarding `CN1CC(N2CCN(C(=O)Nc3cc(Oc4ccc(NC(=O)C5(C(=O)Nc6ccc(F)cc6)CC5)c(F)c4)ccn3)CC2)C1` [Example 17], the IC50 in assay [1] worked out at 17 nM.

Regarding `CN(C)CCN1CCN(C(=O)Nc2cc(Oc3ccc(NC(=O)C4(C(=O)Nc5ccc(F)cc5)CC4)c(F)c3)ccn2)CC1` [Example 2, N-[4-({2-[({4-[2-(Dimethylamino)ethyl]piperazin-1-yl}carbonyl)amino]pyridin-4-yl}oxy)-2-fluorophenyl]-N′-(4-fluorophenyl)cyclopropane-1,1-dicarboxamide], the IC50 in assay [1] worked out at 18 nM. The “Tumor proliferation rate (%)” value is 73.3% in assay [2] (Dose 30 mg/kg/time) and 27.5% in assay [2] (Dose 100 mg/kg/time).

As for `O=C(Nc1cc(Oc2ccc(NC(=O)C3(C(=O)Nc4ccc(F)cc4)CC3)c(F)c2)ccn1)N1CCC(N2CCC2)CC1` [Example 9, N-{4-[(2-{[(4-Azetidin-1-ylpiperidin-1-yl)carbonyl]amino}pyridin-4-yl)oxy]-2-fluorophenyl}-N′-(4-fluorophenyl)cyclopropane-1,1-dicarboxamide], the IC50 in assay [1] was 25 nM.
